{"source": "patent US10119972B2", "about": "“Reactive labelling compounds and uses thereof” (Academia Sinica, priority 2014, dated 2018)", "key": {"[1]": {"assay": "Fluorescence time course of ligation of 101 with ManNAz", "format": "physicochemical", "conditions": "101 (30 μM) with ManNAz (30 μM), PBS buffer containing 10% DMSO", "method": "To probe the SPAAC reaction under the conditions that would be more typical for biomolecule labeling, we investigated the fluorescence response and time course for the reaction of 101 with ManNAz.\nFIG. 16 describes (a) Absorption and Fluorescence emission spectra (λex=330 nm) of 101 (black), 111 (blue) and 112 (red) (45 μM, PBS buffer containing 10% DMSO, pH 7.4). (b) Time course of normalized fluorescence intensity at 435 nm (λex=330 nm) for the ligation reaction of 101 (30 μM) with N-azidoacetylmannosamine (30 μM) in PBS buffer containing 10% DMSO.\nA solution of probe 101 (0.075 μmol) and N-azidoacetylmannosamine (0.075 μmol) in a mixture of 10% DMSO in PBS buffer (2.5 mL) was incubated at 37° C. The fluorescence emission intensity at 435 nm upon excitation at 330 nm was monitored in 5 min intervals. For each point the fluorescence intensity was measured over a period of 5 sec and averaged over a total of 3 points. In a control experiment the same conditions were used except that N-acetylmannosamine (0.075 μmol) was added to the solution."}, "CL1-5 cells [2]": {"tested_on": "CL1-5 cells", "assay": "Live cell imaging of azido-glycoconjugates, no-wash and no-fixation", "format": "cell-based", "conditions": "for cell permeability: live CL1-5 cells, intracellular labeling", "method": "The performance of 101 in live cell imaging was evaluated. For this purpose, highly sialylated lung cancer cells, CL1-5, were cultured in the presence of peracetylated N-azidoacetylmannosamine (Ac4ManNAz) for 3 days to metabolically produce the azido-sialic acid expressed cells. As a negative control, CL1-5 cells were grown in the presence of peracetylated N-acetylmannosamine (Ac4ManNAc). A time course experiment was conducted by exposing the cells at 30-min intervals under no-wash and no-fixation conditions (FIG. 19, FIG. 22). […] Furthermore, the localization of azido-containing glycoconjugates in living cells was visualized by confocal microscopy. The cells labeled by probe 101 were subsequently stained with anti-GRASP65 followed by FITC-conjugated anti-rabbit for Golgi and propidium iodide (PI, a nuclei marker).\nToward this goal, CL1-5 cells were incubated with Ac4ManNAz for 1 h and subsequently removed excess Ac4ManNAz. We then performed the imaging to monitor the trafficking of the sialylated glycoconjugates. […] However, the appearance of blue fluorescence signal was detected on the cell surface after 5 h. The intensity of fluorescence increased over time, and reached saturation at 8 h (FIG. 21 and FIG. 23).\nTo observe the fluorescence labeled azido-glycoconjugates in cells, CL1-5 cells were seeded on chamber slide (2.5×10^4 cells/0.5 mL per wells) and incubated in culture medium (RPMI-1640 supplemented with 10% FBS, 100 U/mL penicillin, 100 μg/mL streptomycin, 1 mM L-glutamine and 1 mM sodium pyruvate) with either 200 μM of control sugar (peracetylated N-acetylmannosamine, Ac4ManNAc) or azido-sugar (peracetylated N-azidoacetylmannosamine, Ac4ManNAz) for 3 days.\nFor Time-lapse imaging of live cells, experiments were carried out using a confocal microscope (TCS-SP5-MP-SMD, Leica) equipped with an incubator to keep the cells in culture conditions. Prewashed cells were incubated with 100 μM of probe 101 in PBS with 10% DMSO and fluorescence imaging of live cells from the previous experiment over 1.5 h. The images were acquired at 450 nm emission and in 5-min intervals.\nTo observe the fluorescence labeled sialylconjugates in cells dependent on different time, CL1-5 cells were seeded on chamber slide (2.5×10^4 cells/0.5 mL per wells) and incubated in culture medium (RPMI-1640 supplemented with 10% FBS, 100 U/mL penicillin, 100 μg/mL streptomycin, 1 mM L-glutamine and 1 mM sodium pyruvate) with 500 μM of azido-sugar (peracetylated N-azidoacetylmannosamine, Ac4ManNAz) for 1 h. Cells were washed three times with PBS and then incubated in culture medium. […] For fluorescence imaging of live cells, experiments were carried out using a confocal microscope (TCS-SP5-MP-SMD, Leica) equipped with an incubator to keep the cells in culture conditions."}, "CL1-5 cells [3]": {"tested_on": "CL1-5 cells", "assay": "Dual fluorescence labeling in cells (SPAAC with CuAAC), confocal microscopy", "format": "cell-based", "conditions": "CL1-5 cells with Ac4ManNAl and Ac4GlcNAz; 100 μM coumOCT, 0.1 μM AzBOCEt", "method": "A dual-labeling experiment was performed using SPAAC in combination with CuAAC for the concurrent fluorescence labeling of two different metabolically incorporated glycoconjugates. Peracetylated N-acetylmannosamine (Ac4ManNAc) and peracetylated N-acetylglucosamine (Ac4GlcNAc) were employed as the control sugars. ManNAc is converted metabolically to sialic acid that is found as a terminal monosaccharide of glycoproteins and glycolipids in cell, whereas GlcNAz is an internal monosaccharide that abundant in the N- and O-linked glycans produced in the endoplasmic reticulum and Golgi. CL1-5 cells were incubated in the presence of both alkyne-containing sugar (Ac4ManNAl) and azido-containing sugar (Ac4GlcNAz) for three days. The cells were stained by SPAAC with coumOCT (for azido sugars), followed by CuAAC with AzBOCEt^6j (for alkynyl sugars), and investigated by confocal microscopy (FIG. 24).\n(A) Illustration of the cell labeling experiments using Ac4ManNAl, Ac4GlcNAz, 101 and AzBOCEt. CL1-5 cells were incubated with 100 μM of Ac4ManNAl and Ac4GlcNAz or control sugars (Ac4ManNAc and Ac4GlcNAc) for 3 days, which were treated with 100 μM of probe 101 for 0.5 h under SPAAC conditions, and then incubated with 0.1 μM of AzBOCEt for 1 h under CuAAC conditions. (B) Dual fluorescence imaging in CL1-5 cells. […]"}}, "data": [{"smiles": "O=c1ccc2cc3c(cc2o1)C#CCCCC3", "note": "[Compound 101, 6,7,8,9-Tetrahydro-10,11-didehydro-cycloocta[g]chromen-2(2H)-one]", "values": [{"measurement": "time for fluorescence intensity to reach a plateau", "setting": "[1]; 435 nm (λex=330 nm)", "result": "less than 1 h"}, {"measurement": "ManNAz consumed", "setting": "[1]; in 40 min", "result": "more than 90%"}, {"measurement": "incubation time to saturation of fluorescence intensity", "setting": "CL1-5 cells [2]; Ac4ManNAz treated CL1-5 cells, 100 μM probe, no-wash and no-fixation", "result": 1.5, "unit": "h"}, {"measurement": "background labeling", "setting": "CL1-5 cells [2]; control cells grown with Ac4ManNAc", "result": "background labeling is negligible"}, {"measurement": "cell permeability", "setting": "CL1-5 cells [2]", "result": "cell-permeable"}, {"measurement": "cell permeability", "setting": "CL1-5 cells [2]; listed as coumOCT", "result": "cell-permeable probe"}, {"measurement": "localization of labeled glycoconjugates", "setting": "CL1-5 cells [3]", "result": "shown only in the cytosol"}]}]}
